# Experimental data reported in paper doi:10.1101/2024.04.24.590935, “Measuring PETase enzyme kinetics by single-molecule microscopy” (bioRxiv, 2024).
# Experiments:
# [1] = target: T1, PETase (wild-type PETase, IsPETase) (Pseudideonella sakaiensis, UniProt A0A0K8P6T7, W159H/S238F); test: single-molecule TIRF of Qdot655-labelled PETase on PET film, competition by pNPA; format: binding; conditions: 4 mM pNPA; competitive with PET; also model soluble substrate; 50 mM sodium phosphate, 100 mM NaCl, pH 7.4, 22 °C
# T1 construct: gene ISF6_4831
# [2] = target: T2, PETase (wild-type PETase, IsPETase) (Pseudideonella sakaiensis, UniProt A0A0K8P6T7); test: as above; format: binding; conditions: 4 mM pNPA; competitive with PET; also model soluble substrate; 50 mM sodium phosphate, 100 mM NaCl, pH 7.4, 22 °C
# T2 construct: gene ISF6_4831
# T2 sequence (A0A0K8P6T7 28-290): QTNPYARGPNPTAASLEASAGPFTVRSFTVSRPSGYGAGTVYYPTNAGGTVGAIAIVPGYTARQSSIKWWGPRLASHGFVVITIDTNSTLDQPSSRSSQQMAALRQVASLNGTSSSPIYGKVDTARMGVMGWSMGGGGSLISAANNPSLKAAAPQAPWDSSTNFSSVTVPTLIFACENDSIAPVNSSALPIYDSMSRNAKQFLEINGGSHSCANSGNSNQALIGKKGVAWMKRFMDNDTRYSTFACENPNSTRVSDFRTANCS
# T1 sequence (A0A0K8P6T7 28-290 W159H/S238F): as the sequence (A0A0K8P6T7 28-290) above, with W132H, S211F counted along it
smiles,measurement,setting,value
CC(=O)Oc1ccc([N+](=O)[O-])cc1 [4-Nitrophenyl acetate],"single-molecule TIRF of Qdot655-labelled PETase on PET film, competition by pNPA",[1],pNPA strongly diminished the landing rate of the wild-type and hyperactive mutant
same,"single-molecule TIRF of Qdot655-labelled PETase on PET film, competition by pNPA",[2],pNPA reduced the binding duration of wild-type PETase and the hyperactive variant
